Laboratory results taken from publication PMC2579264 (European journal of pharmacology, 2008).
Where a chain is given by its changes, count along the chain named.

Legend:
[1] = test system: CHO cells expressing the A^34A^35 receptor; assay: Bio-Gel P-4 gel filtration of internalized agonist, A^34A^35 receptor; details: 100 pM [^125I] peptide YY(3–36); detected by [^125I] label; 2 to 15 min
[2] = test system: Chinese hamster ovary (CHO) cells; assay: Loss of cell protein or detachment of cells after digitonin pretreatment; assay type: cell-based; details: 10 µM digitonin pretreatment at 25 °C
[3] = molecular target: T1, human neuropeptide Y Y2 receptor, wildtype (P^34D^35) (Homo sapiens, UniProt P49146); assay: Receptor-linked internalization of agonist, wildtype Y2 receptor; assay type: cell-based; details: heparin 5 µM, n = 12
T1 sequence (P49146 1-381): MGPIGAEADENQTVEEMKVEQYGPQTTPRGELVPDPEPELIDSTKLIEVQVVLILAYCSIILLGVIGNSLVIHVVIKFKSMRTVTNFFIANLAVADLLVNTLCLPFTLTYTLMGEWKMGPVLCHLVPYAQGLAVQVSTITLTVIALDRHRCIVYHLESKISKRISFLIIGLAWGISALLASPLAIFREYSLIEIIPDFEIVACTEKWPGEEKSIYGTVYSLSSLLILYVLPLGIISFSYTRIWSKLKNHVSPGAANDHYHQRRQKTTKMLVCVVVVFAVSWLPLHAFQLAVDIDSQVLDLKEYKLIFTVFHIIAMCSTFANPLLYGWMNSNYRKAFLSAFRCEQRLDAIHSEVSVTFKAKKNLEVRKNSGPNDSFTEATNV

[4] = molecular target: T2, human neuropeptide Y Y2 receptor, A^34A^35 (Homo sapiens, UniProt P49146, D35A/P34A); assay: Receptor-linked internalization of agonist, A^34A^35 mutant; assay type: cell-based; details: heparin 5 µM, n = 12
T2 sequence (P49146 1-381 P34A/D35A): T1 sequence (P49146 1-381) with P34A, D35A

[5] = test system: neuropeptide Y Y2 receptor; assay: Effect of heparin on binding of peptide YY; set-up: species or system human; details: heparin up to 30 µM; cell surface or particulate Y2 receptors
[6] = test system: human neuropeptide Y Y2 receptor, wildtype; assay type: cell-based
[7] = molecular target: T2, human neuropeptide Y Y2 receptor, A^34A^35; assay: Compartmentalization: unmasking / depletion of surface sites, A^34A^35 mutant; assay type: cell-based

## N[C@@H](Cc1ccc(O)cc1)C(=O)O [C-terminal tyrosine, tyrosine]
[1]
  accumulation of product of peptide YY processing in cells: no accumulation

## C[C@@H]1CC[C@@]2(OC1)O[C@H]1[C@@H](O)[C@H]3[C@@H]4CC[C@H]5C[C@@H](O[C@@H]6O[C@H](CO)[C@H](O[C@@H]7O[C@H](CO)[C@@H](O)[C@H](O[C@@H]8OC[C@@H](O)[C@H](O)[C@H]8O)[C@H]7O[C@@H]7O[C@H](CO)[C@H](O)[C@H](O[C@@H]8O[C@H](CO)[C@@H](O)[C@H](O)[C@H]8O)[C@H]7O)[C@H](O)[C@H]6O)[C@H](O)C[C@]5(C)[C@H]4CC[C@]3(C)[C@H]1[C@@H]2C [digitonin]
[2]
  loss of cell protein or detachment of cells: did not result in a loss of cell protein or a detachment of cells

## heparin
[3]; 4 min
  increase of internalization of 100 pM [^125I] peptide YY(3–36): 19.4 ± 2%
[3]; 10 min
  increase of internalization of 100 pM [^125I] peptide YY(3–36): 4.8 ± 1.8%
[4]; 4 min
  increase of internalization of 100 pM [^125I] peptide YY(3–36): 43.5 ± 3.5%
[4]; 10 min
  increase of internalization of 100 pM [^125I] peptide YY(3–36): 25.1 ± 5%
[5]
  effect on affinity and capacity of binding of peptide YY(3–36): did not affect the affinity and capacity of the binding

## pertussis toxin: pertussis toxin, used to deplete the compartmentalized surface Y2 sites
[6]
  basal cell surface binding of [^125I] peptide YY(3–36) after pertussis toxin: did not substantially reduce
  surface sites unmasked by the arsenical after pertussis toxin: strongly reduced
[7]
  basal cell surface binding of [^125I] peptide YY(3–36) after pertussis toxin: did not substantially reduce
  surface sites unmasked by the arsenical after pertussis toxin: almost eliminated
